Holding throughout (type): cell-based, human
Data set [1] relates to ubiquitinated p53 in A549 cells. The data set is described as follows: p53 expression by western blot. As to conditions: A549 cells with wild type p53, single agent. On the technique in general: Immunoblotting shows a protein as a band on a membrane.
Method: Cells were scraped from the culture, washed twice with PBS, and then suspended in 60-100 μL of Western blot lysis buffer containing 50 mM Tris-HCl (pH 7.5), 250 mM NaCl, 1 mM EDTA, 1 mM EGTA, 1 mM NaF, 1 mM phenylmethylsulfonyl fluoride, 1 mM DTT, 20 μg/mL leupeptin, 20 μg/mL aprotinin, 0.1% Triton X-100 and 1% SDS at 0-4° C. for 15 min. After centrifugation at 1500× g for 10 min at 0° C., the supernatants were collected, and the proteins were separated on 10% SDS-PAGE. After electrophoresis, protein blots were transferred to a nitrocellulose membrane. The membrane was blocked with 5% nonfat milk powder in TBST and incubated overnight with the corresponding primary antibodies at 4° C. After washing three times with TBST, the membrane was incubated at room temperature for 1 h with horseradish peroxidase-conjugated secondary antibody diluted with TBST (1:1000). The detected protein signals were visualized by an enchanced cheiluminescence reaction system (Amersham, Arlington Heights, Ill.).
A549 cells with wild type p53 were exposed to either bortezomib or erlotinib alone, or in combination concomitantly or sequentially 24-hr apart, and p53 expression was assessed by western blot.
The next data set concerns H322. Description: MTT cytotoxicity assay, H322. As to conditions: H322, 72 h. Background: Formazan colour is commonly taken as a measure of viable cells.
Another data set relates to H358. The data set is described as follows: MTT cytotoxicity assay, H358. As to conditions: H358, 72 h.
For a further data set, the system named is A549. The data set is described as follows: MTT cytotoxicity assay, A549. As to conditions: A549, 72 h.
Another data set relates to H1299. The data set is described as follows: MTT cytotoxicity assay, H1299. As to conditions: H1299, 72 h.
Data set [2] deals with EGF-induced EGFR-phosphorylation. The data set is described as follows: EGF-induced EGFR phosphorylation in sensitive and resistant cells. As to conditions: both sensitive and resistant cells.
Method: Cells were scraped from the culture, washed twice with PBS, and then suspended in 60-100 μL of Western blot lysis buffer containing 50 mM Tris-HCl (pH 7.5), 250 mM NaCl, 1 mM EDTA, 1 mM EGTA, 1 mM NaF, 1 mM phenylmethylsulfonyl fluoride, 1 mM DTT, 20 μg/mL leupeptin, 20 μg/mL aprotinin, 0.1% Triton X-100 and 1% SDS at 0-4° C. for 15 min. […] After electrophoresis, protein blots were transferred to a nitrocellulose membrane. The membrane was blocked with 5% nonfat milk powder in TBST and incubated overnight with the corresponding primary antibodies at 4° C. After washing three times with TBST, the membrane was incubated at room temperature for 1 h with horseradish peroxidase-conjugated secondary antibody diluted with TBST (1:1000). The detected protein signals were visualized by an enchanced cheiluminescence reaction system (Amersham, Arlington Heights, Ill.).

SMILES strings stand for the structures. Where a name gives a salt, the structure may show the parent alone.

On to `CC(C)C[C@H](NC(=O)[C@H](Cc1ccccc1)NC(=O)c1cnccn1)B(O)O` [bortezomib], for which, in data set [1], the “p53 expression (western blot)” value is on record as “accumulation of ubiquitinated p53”.

As to `C#Cc1cccc(Nc2ncnc3cc(OCCOC)c(OCCOC)cc23)c1` [erlotinib HCl, [6,7-bis(2-methoxyethoxy)-4-quinazolin-4-yl]-(3-ethynylphenyl) amine], the “Sensitivity (cytotoxicity)” value in the data set on H322 is on record as “sensitive”; in the data set on H358, “sensitive”; with A549 it was “resistant”; in the data set on H1299, “resistant”. Besides, in data set [2], the “EGF-induced EGFR-phosphorylation” value is listed as “inhibits”.

Values taken from patent US20060084691A1, “Combined treatment with bortezomib and an epidermal growth factor receptor kinase inhibitor” (priority 2004, published 2006).
